Experiment [1] deals with Candida albicans. Put plainly: Antifungal activity against Candida albicans at 50 ug/mL. Format: functional, organism-based.
The test system of experiment [2] is P388. Put plainly: Cytotoxicity against mouse P388 cells by MTT assay. Format: functional, cell-based.
Experiment [3] has as its system PANC-1. Put plainly: Cytotoxicity against human PANC-1 cells by MTT assay. Format: functional, cell-based.

Values after ≈ are worked out from the molar mass of the structure shown. Active and inactive are the calls of the source. The calls are words filed in the database; no cut-off is given here.

With `Cc1cc2occ(C)c2cc2c(C)ccc1-2` [LINDERAZULENE], the result in experiment [1] was inactive. In addition, in experiment [2], the IC50 was found to be 18.8 µg/mL (≈ 89.4 µM).
For `Cc1cc2occ(C)c2cc2c(C=O)ccc1-2`, in that order: “inactive” and 15.6 µg/mL (≈ 69.6 µM).
Turning to `COC(=O)c1ccc2c(C)cc3occ(C)c3cc1-2`, the outcome in experiment [1] was inactive. The half-inhibitory concentration (IC50) in experiment [2] is 2.7 µg/mL (≈ 10.6 µM); in experiment [3], 18.7 µg/mL (≈ 73.5 µM).

The values are drawn from ChEMBL document CHEMBL1142585, “Two new cytotoxic linderazulenes from a deep-sea gorgonian of the genus Paramuricea” (J Nat Prod, 2005).
